The values below are quoted from earlier work in patent US11999734B2, “Compounds and compositions for the treatment of cystic fibrosis” (Fondazione Istituto Italiano Di Tecnologia, priority 2018, dated 2024).

Data set [1] addresses F508del-CFTR (Homo sapiens, UniProt P13569, DEL508-508). As to conditions: chronic treatment of cells with VX-770; Cholon et al. 2014, Veit et al. 2014.
For data set [2], the system named is CF patients.

Chain of F508del-CFTR (P13569 with tags, fused parts or gaps DEL508-508): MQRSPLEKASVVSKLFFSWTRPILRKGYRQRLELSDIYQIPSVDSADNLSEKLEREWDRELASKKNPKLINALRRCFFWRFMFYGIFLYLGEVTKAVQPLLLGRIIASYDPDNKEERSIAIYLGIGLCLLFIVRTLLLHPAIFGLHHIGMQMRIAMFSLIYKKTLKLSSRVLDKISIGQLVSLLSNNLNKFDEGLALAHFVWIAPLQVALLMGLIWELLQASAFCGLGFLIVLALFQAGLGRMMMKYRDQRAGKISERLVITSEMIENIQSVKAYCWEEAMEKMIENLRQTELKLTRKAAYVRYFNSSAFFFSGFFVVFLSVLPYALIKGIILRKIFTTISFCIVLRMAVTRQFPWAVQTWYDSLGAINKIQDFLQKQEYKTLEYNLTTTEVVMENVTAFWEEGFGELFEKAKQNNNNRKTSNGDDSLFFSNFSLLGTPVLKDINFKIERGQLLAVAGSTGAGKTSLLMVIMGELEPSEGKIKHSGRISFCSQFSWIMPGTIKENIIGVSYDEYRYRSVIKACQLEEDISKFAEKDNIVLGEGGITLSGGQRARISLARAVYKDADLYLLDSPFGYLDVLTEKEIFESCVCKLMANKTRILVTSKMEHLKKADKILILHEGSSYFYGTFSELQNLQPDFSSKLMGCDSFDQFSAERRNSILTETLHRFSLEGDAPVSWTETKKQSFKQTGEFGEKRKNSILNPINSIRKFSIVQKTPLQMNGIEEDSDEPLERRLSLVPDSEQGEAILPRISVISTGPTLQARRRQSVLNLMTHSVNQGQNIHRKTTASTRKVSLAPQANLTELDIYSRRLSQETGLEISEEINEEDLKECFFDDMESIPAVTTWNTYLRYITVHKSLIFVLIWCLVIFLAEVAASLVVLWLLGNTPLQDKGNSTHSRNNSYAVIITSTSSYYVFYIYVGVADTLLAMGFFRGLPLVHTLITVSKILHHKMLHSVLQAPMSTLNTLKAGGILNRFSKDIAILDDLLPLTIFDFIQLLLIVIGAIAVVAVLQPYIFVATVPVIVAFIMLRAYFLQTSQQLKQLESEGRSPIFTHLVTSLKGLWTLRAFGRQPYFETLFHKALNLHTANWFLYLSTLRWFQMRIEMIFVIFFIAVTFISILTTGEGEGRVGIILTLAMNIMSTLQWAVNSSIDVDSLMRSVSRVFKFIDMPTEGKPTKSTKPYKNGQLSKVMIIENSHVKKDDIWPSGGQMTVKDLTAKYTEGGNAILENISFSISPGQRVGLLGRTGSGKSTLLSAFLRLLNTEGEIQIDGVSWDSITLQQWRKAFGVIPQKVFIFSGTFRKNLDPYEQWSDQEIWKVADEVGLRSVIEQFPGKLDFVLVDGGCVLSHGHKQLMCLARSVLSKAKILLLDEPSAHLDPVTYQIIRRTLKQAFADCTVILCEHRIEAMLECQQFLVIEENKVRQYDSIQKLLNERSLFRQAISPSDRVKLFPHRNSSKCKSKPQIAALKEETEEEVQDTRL

Consider `CC(C)(C)c1cc(C(C)(C)C)c(NC(=O)c2c[nH]c3ccccc3c2=O)cc1O` [VX-770, ivacaftor], for which, in data set [1], the “effect on corrector activity of VX-809” value is on record as “decreases the corrector activity of VX-809”. Also, in data set [2] (VX-770, Ramsey et al. 2011), the “efficacy in clinical trials” value was “high efficacy”.
As to `Cc1ccc(NC(=O)C2(c3ccc4c(c3)OC(F)(F)O4)CC2)nc1-c1cccc(C(=O)O)c1` [VX-809, lumacaftor], the “therapeutic benefit in clinical trials” value in data set [2] (CF patients with F508del mutation, Clancy et al. 2012) is “did not show a clear therapeutic benefit”.
